Our source for the fold induction values is patent US10766869B2, “Triazoles for the treatment of demyelinating dieases” (Vertex Pharmaceuticals Incorporated, priority 2015, dated 2020).

Read-outs that look alike come from different tables or passages of the source.

In this assay the test system is primary rat mixed cortical cells. Nature of the assay: In vitro myelination assay (MBP positive myelin strands, fold myelin pixels above background). The assay is classed as cell-based. The following applies: Rattus norvegicus; for fold induction at 1 µM: 1.0 μM compound; for fold induction at 10 µM: 10.0 μM compound. The method in brief: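 P1 rat mixed cortical cultures (neurons, OPCs, oligodendrocytes, astrocytes, microglia) grown 14 days at 37 °C with compound, half-medium refreshed with compound on days 6 and 10. Fixed cells stained for MBP; MBP-positive myelin strand pixels per well quantified by automated imaging, reported as fold over no-compound baseline at 1.0 and 10.0 μM.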

Where [1] appears, read: relative to baseline of no added compound, read-out: Fold myelin pixels above background, 1.0 μM.
[2] abbreviates: relative to baseline of no added compound, read-out: Fold myelin pixels above background, 10.0 μM.
[3] abbreviates: read-out: Fold myelin pixels above background relative to baseline of no added compound.
The mark [4] stands for this setting: relative to baseline of no added compound, read-out: Fold myelin pixels above background.

Regarding `Cc1cc(Nc2ncn(-c3cccc(F)c3)n2)cc(NC2CCN(C3COC3)CC2)c1` [Compound 192, N3-[1-(3-fluorophenyl)-1,2,4-triazol-3-yl]-5-methyl-N1-[1-(oxetan-3-yl)-4-piperidyl]benzene-1,3-diamine], the fold induction at 1 µM under setting [1] fell in the range of 100 to 1000. For the same molecule, the fold induction at 10 µM under setting [2] is no more than 1.
On to `Cc1cc(Nc2ncn(-c3cc(F)cc(F)c3)n2)cc(N2CC(CN3CCOCC3)C2)c1` [Compound 866, 1-(3,5-difluorophenyl)-N-[3-methyl-5-[3-(morpholinomethyl)azetidin-1-yl]phenyl]-1,2,4-triazol-3-amine], for which, under setting [3], the fold induction at 1 µM fell in the range of 1 to 10 and the fold induction at 10 µM was in the range of 10 to 100.
On to `CCc1cc(Nc2ncn(-c3ccc(F)cc3)n2)cc(N2CCN(C3COC3)CC2)c1` [Compound 14, N-[3-ethyl-5-[4-(oxetan-3-yl)piperazin-1-yl]phenyl]-1-(4-fluorophenyl)-1,2,4-triazol-3-amine], for which the fold induction at 1 µM under setting [1] lay in the range of 1000 to 10000. In addition, the fold induction at 10 µM under setting [2] was no more than 1.
Consider `CCc1cc(Nc2ncn(-c3ccc(F)c(F)c3)n2)cc(N2CCN(C3(C)COC3)CC2)c1` [Compound 577, 1-(3,4-difluorophenyl)-N-[3-ethyl-5-[4-(3-methyloxetan-3-yl)piperazin-1-yl]phenyl]-1,2,4-triazol-3-amine], for which, under setting [4], the fold induction at 1 µM lay in the range of 10 to 100 and the fold induction at 10 µM was 10 to 100.
Turning to `Cc1cc(Nc2ncn(-c3cc(F)cc(F)c3)n2)cc(N2C[C@@H]3C[C@H]2CO3)c1` [Compound 822, 1-(3,5-difluorophenyl)-N-[3-methyl-5-[(1S,4S)-2-oxa-5-azabicyclo[2.2.1]heptan-5-yl]phenyl]-1,2,4-triazol-3-amine], under setting [3], the fold induction at 1 µM is 10 to 100 and the fold induction at 10 µM was no more than 1.
With `CCc1cc(Nc2ncn(-c3cccc(C(F)(F)F)c3)n2)cc(N2CCN(C3COC3)CC2)c1` [Compound 218, N-[3-ethyl-5-[4-(oxetan-3-yl)piperazin-1-yl]phenyl]-1-[3-(trifluoromethyl)phenyl]-1,2,4-triazol-3-amine], the fold induction at 1 µM under setting [1] was 100 to 1000. The fold induction at 10 µM under setting [2] was no more than 1.
The corresponding values for `Cc1cc(Nc2ncn(-c3cc(F)cc(F)c3)n2)cc(NC2COC2)c1` [Compound 240, N3-[1-(3,5-difluorophenyl)-1,2,4-triazol-3-yl]-5-methyl-N1-(oxetan-3-yl)benzene-1,3-diamine] are 100 to 1000 and 1 to 10.
Consider `Cc1cc(Nc2ncn(-c3cc(F)cc(F)c3)n2)cc(NC(C)CN2CCOCC2)c1` (stereo not drawn) [Compound 931, N3-[1-(3,5-difluorophenyl)-1,2,4-triazol-3-yl]-5-methyl-N1-(1-methyl-2-morpholino-ethyl)benzene-1,3-diamine], for which, under setting [3], the fold induction at 1 µM was in the range of 10 to 100 and the fold induction at 10 µM was no more than 1.
In the case of `Cc1cc(Nc2ncn(-c3cc(F)cc(F)c3)n2)cc(N2CC(N3CCO[C@H](C)C3)C2)c1` (single isomer, unassigned) [Compound 696], under setting [4], the fold induction at 1 µM was 10 to 100 and the fold induction at 10 µM lay within 1 to 10.
With `Fc1ccccc1-n1cnc(Nc2cc(C3CC3)cc(N3CCN(C4COC4)CC3)c2)n1` [Compound 225, N-[3-cyclopropyl-5-[4-(oxetan-3-yl)piperazin-1-yl]phenyl]-1-(2-fluorophenyl)-1,2,4-triazol-3-amine], the fold induction at 1 µM under setting [1] was in the range of 100 to 1000. The fold induction at 10 µM under setting [2] fell in the range of 100 to 1000.
For `COCCCN1CCCN(c2cc(C)cc(Nc3ncn(-c4cc(F)cc(F)c4)n3)c2)CC1` [Compound 896, 1-(3,5-difluorophenyl)-N-[3-[4-(3-methoxypropyl)-1,4-diazepan-1-yl]-5-methyl-phenyl]-1,2,4-triazol-3-amine], under setting [3], the fold induction at 1 µM fell in the range of 1 to 10 and the fold induction at 10 µM lay within 1 to 10.
Turning to `Cc1cc(Nc2ncn(-c3cc(F)cc(F)c3)n2)cc(N2CCN(C3CCCCC3O)CC2)c1` (stereo not drawn) [Compound 878, 2-[4-[3-[[1-(3,5-difluorophenyl)-1,2,4-triazol-3-yl]amino]-5-methyl-phenyl]piperazin-1-yl]cyclohexanol], under setting [3], the fold induction at 1 µM was 10 to 100 and the fold induction at 10 µM is no more than 1.
The corresponding values for `CNC(=O)c1cc(Nc2ncn(-c3ccc(F)c(F)c3)n2)nc(N2CCN(C3COC3)CC2)c1` [Compound 789, 2-[[1-(3,4-difluorophenyl)-1,2,4-triazol-3-yl]amino]-N-methyl-6-[4-(oxetan-3-yl)piperazin-1-yl]pyridine-4-carboxamide] are 1 to 10 and no more than 1.
For the molecule `CCCc1cc(Nc2ncn(-c3cnccn3)n2)cc(N2CCN(C3COC3)CC2)c1` [Compound 236, N-[3-[4-(oxetan-3-yl)piperazin-1-yl]-5-propyl-phenyl]-1-pyrazin-2-yl-1,2,4-triazol-3-amine], under setting [1], the fold induction at 1 µM was no more than 1. For the same molecule, the fold induction at 10 µM under setting [2] was no more than 1.
For `Cc1cc(Nc2ncn(-c3cc(F)cc(F)c3)n2)cc(N2CCN(CCO)C(C)C2)c1` (stereo not drawn) [Compound 902, 2-[4-[3-[[1-(3,5-difluorophenyl)-1,2,4-triazol-3-yl]amino]-5-methyl-phenyl]-2-methyl-piperazin-1-yl]ethanol], under setting [3], the fold induction at 1 µM lay within 1 to 10 and the fold induction at 10 µM is no more than 1.
Turning to `OC1(C2CN(c3cc(Nc4ncn(-c5cc(F)cc(F)c5)n4)cc(C(F)(F)F)c3)CCN2)CCC1` (stereo not drawn) [Compound 4, 1-[4-[3-[[1-(3,5-difluorophenyl)-1,2,4-triazol-3-yl]amino]-5-(trifluoromethyl)phenyl]piperazin-2-yl]cyclobutanol], the fold induction at 1 µM under setting [1] is 1 to 10. Besides, the fold induction at 10 µM under setting [2] is no more than 1.
As for `CCn1cnc(Nc2cc(C)cc(Nc3ncn(-c4ccccc4)n3)c2)n1` [Compound 604, N1-(1-ethyl-1,2,4-triazol-3-yl)-5-methyl-N3-(1-phenyl-1,2,4-triazol-3-yl)benzene-1,3-diamine], under setting [4], the fold induction at 1 µM lay in the range of 10 to 100 and the fold induction at 10 µM was no more than 1.
Regarding `Cc1cc(Nc2ncn(-c3ccccc3)n2)cc(N2CCN(C3CC3)CC2)c1` [Compound 149, N-[3-(4-cyclopropylpiperazin-1-yl)-5-methyl-phenyl]-1-phenyl-1,2,4-triazol-3-amine], the fold induction at 1 µM under setting [1] was 1000 to 10000. Moreover, the fold induction at 10 µM under setting [2] was in the range of 10 to 100.
As for `Cc1cc(Nc2ncn(-c3cncc(F)c3)n2)cc(N2CCN(C3COC3)CC2)c1` [Compound 24, 1-(5-fluoro-3-pyridyl)-N-[3-methyl-5-[4-(oxetan-3-yl)piperazin-1-yl]phenyl]-1,2,4-triazol-3-amine], the fold induction at 1 µM under setting [1] lay in the range of 10 to 100. Besides, under setting [2], the fold induction at 10 µM lay in the range of 100 to 1000.
For `Fc1ccc(-n2cnc(Nc3cc(C(F)(F)F)cc(N4CCN(C5COC5)CC4)n3)n2)cc1` [Compound 728, N-[1-(4-fluorophenyl)-1,2,4-triazol-3-yl]-6-[4-(oxetan-3-yl)piperazin-1-yl]-4-(trifluoromethyl)pyridin-2-amine], under setting [4], the fold induction at 1 µM lay within 10 to 100 and the fold induction at 10 µM is no more than 1.
Take `Cc1cc(Nc2ncn(-c3cc(F)cc(F)c3)n2)cc(N2CC(C)(O)C2)c1` [Compound 551, 1-[3-[[1-(3,5-difluorophenyl)-1,2,4-triazol-3-yl]amino]-5-methyl-phenyl]-3-methyl-azetidin-3-ol]: under setting [4], the fold induction at 1 µM was in the range of 100 to 1000 and the fold induction at 10 µM fell in the range of 10 to 100.
Consider `Cc1cc(NCC2CN(CC(C)C)CCO2)cc(Nc2ncn(-c3cc(F)cc(F)c3)n2)c1` (stereo not drawn) [Compound 903, N1-[1-(3,5-difluorophenyl)-1,2,4-triazol-3-yl]-N3-[(4-isobutylmorpholin-2-yl)methyl]-5-methyl-benzene-1,3-diamine], for which, under setting [3], the fold induction at 1 µM fell in the range of 10 to 100 and the fold induction at 10 µM is 1 to 10.
Regarding `Cc1cc(Nc2ncn(-c3cc(F)cc(F)c3)n2)cc(N2CCN(C3COC3)CC2)n1` [Compound 1, N-[1-(3,5-difluorophenyl)-1,2,4-triazol-3-yl]-2-methyl-6-[4-(oxetan-3-yl)piperazin-1-yl]pyridin-4-amine], the fold induction at 1 µM under setting [1] lay within 1000 to 10000. Besides, the fold induction at 10 µM under setting [2] was 100 to 1000.
In the case of `Cc1cc(Nc2ncn(-c3ccc(F)c(F)c3)n2)cc(N2CCN(C)CC2)c1` [Compound 317, 1-(3,4-difluorophenyl)-N-[3-methyl-5-(4-methylpiperazin-1-yl)phenyl]-1,2,4-triazol-3-amine], under setting [1], the fold induction at 1 µM fell in the range of 100 to 1000. Besides, the fold induction at 10 µM under setting [2] was in the range of 10 to 100.
On to `Cc1cc(Nc2ncn(-c3cc(F)cc(F)c3)n2)cc(N2CCC(OCCF)CC2)c1` [Compound 950, 1-(3,5-difluorophenyl)-N-[3-[4-(2-fluoroethoxy)-1-piperidyl]-5-methyl-phenyl]-1,2,4-triazol-3-amine], for which, under setting [3], the fold induction at 1 µM was 10 to 100 and the fold induction at 10 µM lay within 1 to 10.
Turning to `Cc1cc(Nc2ncn(-c3cc(F)cc(F)c3)n2)c(F)c(NC2CCOCC2)c1` [Compound 810, N3-[1-(3,5-difluorophenyl)-1,2,4-triazol-3-yl]-2-fluoro-5-methyl-N1-tetrahydropyran-4-yl-benzene-1,3-diamine], under setting [3], the fold induction at 1 µM was in the range of 1 to 10 and the fold induction at 10 µM fell in the range of 1 to 10.
For `Fc1cc(F)cc(-n2cnc(Nc3cc(N4CC(N5CCOCC5)C4)cc(N4CC(N5CCOCC5)C4)c3)n2)c1` [Compound 868, N-[3,5-bis(3-morpholinoazetidin-1-yl)phenyl]-1-(3,5-difluorophenyl)-1,2,4-triazol-3-amine], under setting [3], the fold induction at 1 µM fell in the range of 1 to 10 and the fold induction at 10 µM is 1 to 10.
